# In patent US9833497B2, “Human originated EGF domain proteins and use of the same” (CHENGDU SOURCEBIO LIMITED-LIABILITY COMPANY, priority 2013, dated 2017):
# What was measured:
# Type in all cases: cell-based
# E. coli DH5α = assay: Antibacterial activity: MIC and growth curve against E. coli DH5α in 96-well plate; settings: minimal inhibitory concentration against E. coli DH5α; 96-well plate, 5×10^5 CFU/mL, 37° C., judged after 8 h
# Procedure, shortened: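 MIC taken as lowest protein level with no bacterial growth, tracked by A600 every 30 min during 37 °C, 175 rpm culture. Two-fold protein series 50-12.5 μg/mL final, triplicate wells, against 5×10^5 CFU/mL of LB-washed mid-log cells.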
# E. coli BL21 = assay: MIC against Gram-negative bacteria: E. coli BL21
# Procedure, shortened: (§1)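 Broth microdilution, LB medium, final inoculum 5×10^5 CFU/mL from McFarland 0.5 cultures. Recombinant human EGF domain proteins tested in two-fold steps, n=3. MIC: lowest concentration, no growth.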
# Pseudomonas aeruginosa = assay: MIC against Gram-negative bacteria: Pseudomonas aeruginosa
# Procedure, shortened: as §1
# Klebsiella pneumonia = assay: MIC against Gram-negative bacteria: Klebsiella pneumonia
# Procedure, shortened: as §1
# Enterobacter cloacae = assay: MIC against Gram-negative bacteria: Enterobacter cloacae
# Procedure, shortened: as §1
# Aeromonas hydrophila = assay: MIC against Gram-negative bacteria: Aeromonas hydrophila
# Procedure, shortened: as §1
# Citrobacter diversus = assay: MIC against Gram-negative bacteria: Citrobacter diversus
# Procedure, shortened: as §1
# Moraxella catarrhalis = assay: MIC against Gram-negative bacteria: Moraxella catarrhalis
# Procedure, shortened: as §1
# Proteus mirabilis = assay: MIC against Gram-negative bacteria: Proteus mirabilis
# Procedure, shortened: as §1
# Proteus vulgaris = assay: MIC against Gram-negative bacteria: Proteus vulgaris
# Procedure, shortened: as §1
# Serratia marcescens = assay: MIC against Gram-negative bacteria: Serratia marcescens
# Procedure, shortened: as §1
# [1] = E. coli BL21, 5×10^5 CFU/mL, 10 h cultivation at 37° C.
# [2] = Pseudomonas aeruginosa, 5×10^5 CFU/mL, 10 h cultivation at 37° C.
# [3] = Klebsiella pneumonia, 5×10^5 CFU/mL, 10 h cultivation at 37° C.
# [4] = Enterobacter cloacae, 5×10^5 CFU/mL, 10 h cultivation at 37° C.
# [5] = Aeromonas hydrophila, 5×10^5 CFU/mL, 10 h cultivation at 37° C.
# [6] = Citrobacter diversus, 5×10^5 CFU/mL, 10 h cultivation at 37° C.
# [7] = Moraxella catarrhalis, 5×10^5 CFU/mL, 10 h cultivation at 37° C.
# [8] = Proteus mirabilis, 5×10^5 CFU/mL, 10 h cultivation at 37° C.
# [9] = Proteus vulgaris, 5×10^5 CFU/mL, 10 h cultivation at 37° C.
# [10] = Serratia marcescens, 5×10^5 CFU/mL, 10 h cultivation at 37° C.
# [11] = 96-well plate, 5×10^5 CFU/mL, 37° C., 10 h
substance,measurement,setting,value
PRT1413 (PTNQCIDVACSNHGTCITGTCICNPGYKGESCE; listed as Homo sapiens),MIC,E. coli DH5α,12.5 µg/mL
same,MIC against E. coli BL21,E. coli BL21; [1],25 µg/mL
same,MIC against P. aeruginosa,Pseudomonas aeruginosa; [2],50 µg/mL
same,MIC against K. pneumonia,Klebsiella pneumonia; [3],25 µg/mL
same,MIC against E. cloacae,Enterobacter cloacae; [4],12.5 µg/mL
same,MIC against A. hydrophila,Aeromonas hydrophila; [5],25 µg/mL
same,MIC against C. diversus,Citrobacter diversus; [6],50 µg/mL
same,MIC against M. catarrhalis,Moraxella catarrhalis; [7],12.5 µg/mL
same,MIC against P. mirabilis,Proteus mirabilis; [8],50 µg/mL
same,MIC against P. vulgaris,Proteus vulgaris; [9],25 µg/mL
same,MIC against S. marcescens,Serratia marcescens; [10],12.5 µg/mL
PRT816 (WGPDCSHPCNCSAGHGSCDAISGLCLCEAGYVGPRCE; listed as Homo sapiens),MIC,E. coli DH5α,25 µg/mL
same,MIC (μg/mL) E. coli BL21,"E. coli BL21; E. coli BL21, 10 h cultivation at 37° C., 5×10^5 CFU/mL",50 µg/mL
same,MIC (μg/mL) P. aeruginosa,"Pseudomonas aeruginosa; P. aeruginosa, 10 h cultivation at 37° C., 5×10^5 CFU/mL",100 µg/mL
same,MIC (μg/mL) K. pneumonia,"Klebsiella pneumonia; K. pneumonia, 10 h cultivation at 37° C., 5×10^5 CFU/mL",50 µg/mL
same,MIC (μg/mL) E. cloacae,"Enterobacter cloacae; E. cloacae, 10 h cultivation at 37° C., 5×10^5 CFU/mL",25 µg/mL
same,MIC (μg/mL) A. hydrophila,"Aeromonas hydrophila; A. hydrophila, 10 h cultivation at 37° C., 5×10^5 CFU/mL",12.5 µg/mL
same,MIC (μg/mL) C. diversus,"Citrobacter diversus; C. diversus, 10 h cultivation at 37° C., 5×10^5 CFU/mL",25 µg/mL
same,MIC (μg/mL) M. catarrhalis,"Moraxella catarrhalis; M. catarrhalis, 10 h cultivation at 37° C., 5×10^5 CFU/mL",50 µg/mL
same,MIC (μg/mL) P. mirabilis,"Proteus mirabilis; P. mirabilis, 10 h cultivation at 37° C., 5×10^5 CFU/mL",25 µg/mL
same,MIC (μg/mL) P. vulgaris,"Proteus vulgaris; P. vulgaris, 10 h cultivation at 37° C., 5×10^5 CFU/mL",25 µg/mL
same,MIC (μg/mL) S. marcescens,"Serratia marcescens; S. marcescens, 10 h cultivation at 37° C., 5×10^5 CFU/mL",12.5 µg/mL
PRT1480 (PGPCDSQPCQNGGTCVPEGLDGYQCLCPLAFGGEANCA; listed as Homo sapiens),MIC,E. coli DH5α,50 µg/mL
same,MIC against E. coli BL21,E. coli BL21; [1],12.5 µg/mL
same,MIC against P. aeruginosa,Pseudomonas aeruginosa; [2],25 µg/mL
same,MIC against K. pneumonia,Klebsiella pneumonia; [3],12.5 µg/mL
same,MIC against E. cloacae,Enterobacter cloacae; [4],25 µg/mL
same,MIC against A. hydrophila,Aeromonas hydrophila; [5],12.5 µg/mL
same,MIC against C. diversus,Citrobacter diversus; [6],25 µg/mL
same,MIC against M. catarrhalis,Moraxella catarrhalis; [7],12.5 µg/mL
same,MIC against P. mirabilis,Proteus mirabilis; [8],50 µg/mL
same,MIC against P. vulgaris,Proteus vulgaris; [9],12.5 µg/mL
same,MIC against S. marcescens,Serratia marcescens; [10],50 µg/mL
PRT533 (GTINSNLGYCQCKLHVEGPTCSRCKLLYWNLDKENPSGCSE; listed as Homo sapiens),MIC,E. coli DH5α,50 µg/mL
same,MIC against E. coli BL21,E. coli BL21; [11],25 µg/mL
same,MIC against P. aeruginosa,Pseudomonas aeruginosa; [11],100 µg/mL
same,MIC against K. pneumonia,Klebsiella pneumonia; [11],25 µg/mL
same,MIC against E. cloacae,Enterobacter cloacae; [11],50 µg/mL
same,MIC against A. hydrophila,Aeromonas hydrophila; [11],25 µg/mL
same,MIC against C. diversus,Citrobacter diversus; [11],12.5 µg/mL
same,MIC against M. catarrhalis,Moraxella catarrhalis; [11],25 µg/mL
same,MIC against P. mirabilis,Proteus mirabilis; [11],50 µg/mL
same,MIC against P. vulgaris,Proteus vulgaris; [11],25 µg/mL
same,MIC against S. marcescens,Serratia marcescens; [11],12.5 µg/mL
PRT469 (NCSTTCFNGGTCFYPGKCICPPGLEGEQCE; listed as Homo sapiens),MIC,E. coli DH5α,12.5 µg/mL
same,MIC against E. coli BL21,E. coli BL21; [11],25 µg/mL
same,MIC against P. aeruginosa,Pseudomonas aeruginosa; [11],12.5 µg/mL
same,MIC against K. pneumonia,Klebsiella pneumonia; [11],25 µg/mL
same,MIC against E. cloacae,Enterobacter cloacae; [11],50 µg/mL
same,MIC against A. hydrophila,Aeromonas hydrophila; [11],25 µg/mL
same,MIC against C. diversus,Citrobacter diversus; [11],12.5 µg/mL
same,MIC against M. catarrhalis,Moraxella catarrhalis; [11],50 µg/mL
same,MIC against P. mirabilis,Proteus mirabilis; [11],12.5 µg/mL
same,MIC against P. vulgaris,Proteus vulgaris; [11],50 µg/mL
same,MIC against S. marcescens,Serratia marcescens; [11],12.5 µg/mL
PRT452 (DIDECTEMPFVCSQKCENVIGSYICKCAPGYLREPDGKTC; listed as Homo sapiens),MIC,E. coli DH5α,12.5 µg/mL
same,MIC against E. coli BL21,E. coli BL21; [11],12.5 µg/mL
same,MIC against P. aeruginosa,Pseudomonas aeruginosa; [11],12.5 µg/mL
same,MIC against K. pneumonia,Klebsiella pneumonia; [11],12.5 µg/mL
same,MIC against E. cloacae,Enterobacter cloacae; [11],50 µg/mL
same,MIC against A. hydrophila,Aeromonas hydrophila; [11],12.5 µg/mL
same,MIC against C. diversus,Citrobacter diversus; [11],50 µg/mL
same,MIC against M. catarrhalis,Moraxella catarrhalis; [11],25 µg/mL
same,MIC against P. mirabilis,Proteus mirabilis; [11],12.5 µg/mL
same,MIC against P. vulgaris,Proteus vulgaris; [11],25 µg/mL
same,MIC against S. marcescens,Serratia marcescens; [11],50 µg/mL
PRT950 (CESGCASSPCQHGGSCHPQRQPPYYSCQCAPPFSGSRCE; listed as Homo sapiens),MIC,E. coli DH5α,50 µg/mL
same,MIC,"E. coli BL21; E. coli BL21, 10 h cultivation at 37° C.",12.5 µg/mL
same,MIC,"Pseudomonas aeruginosa; P. aeruginosa, 10 h cultivation at 37° C.",50 µg/mL
same,MIC,"Klebsiella pneumonia; K. pneumonia, 10 h cultivation at 37° C.",25 µg/mL
same,MIC,"Enterobacter cloacae; E. cloacae, 10 h cultivation at 37° C.",12.5 µg/mL
same,MIC,"Aeromonas hydrophila; A. hydrophila, 10 h cultivation at 37° C.",50 µg/mL
same,MIC,"Citrobacter diversus; C. diversus, 10 h cultivation at 37° C.",25 µg/mL
same,MIC,"Moraxella catarrhalis; M. catarrhalis, 10 h cultivation at 37° C.",12.5 µg/mL
same,MIC,"Proteus mirabilis; P. mirabilis, 10 h cultivation at 37° C.",50 µg/mL
same,MIC,"Proteus vulgaris; P. vulgaris, 10 h cultivation at 37° C.",25 µg/mL
same,MIC,"Serratia marcescens; S. marcescens, 10 h cultivation at 37° C.",12.5 µg/mL
